ChEMBL document CHEMBL1140990, “Evaluation of alpha,beta-unsaturated ketone-based probes for papain-family cysteine proteases” (Bioorg Med Chem, 2009)
Calls of active or inactive are those of the source. No cut-off for these calls is given here.

Assays:
[1] = molecular target: T1, Procathepsin L (Mus musculus) (UniProt P06797); assay: Binding affinity to cathepsin L in wild type mouse NIH/3T3 cells; format: cell-based; conditions: NIH3T3
T1 sequence (whole entry): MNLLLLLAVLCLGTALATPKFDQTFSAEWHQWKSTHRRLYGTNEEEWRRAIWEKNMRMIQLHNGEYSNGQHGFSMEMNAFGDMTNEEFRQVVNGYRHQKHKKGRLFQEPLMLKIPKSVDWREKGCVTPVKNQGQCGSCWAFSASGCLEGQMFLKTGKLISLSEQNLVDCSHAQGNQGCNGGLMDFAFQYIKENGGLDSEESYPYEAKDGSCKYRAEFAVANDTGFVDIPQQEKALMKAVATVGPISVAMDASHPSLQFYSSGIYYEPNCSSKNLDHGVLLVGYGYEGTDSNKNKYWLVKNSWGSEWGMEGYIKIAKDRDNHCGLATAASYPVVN

[2] = molecular target: Cathepsin B (Mus musculus) (UniProt P10605); assay: Binding affinity to cathepsin B in mouse spleen crude extracts at 500 nM; format: tissue-based
[3] = molecular target: Cathepsin B (Mus musculus) (UniProt P10605); assay: Binding affinity to cathepsin B in wild type mouse NIH/3T3 cells; format: cell-based; conditions: NIH3T3
[4] = molecular target: Cathepsin B (Mus musculus) (UniProt P10605); assay: Binding affinity to cathepsin B in mouse spleen crude extracts; format: tissue-based
[5] = molecular target: Cathepsin B (Homo sapiens) (UniProt P07858); assay: Binding affinity to cathepsin B in human MDA-MB-231 cell lysates; format: cell-free
[6] = molecular target: Procathepsin L (Homo sapiens) (UniProt P07711); assay: Inhibition of human recombinant cathepsin L
[7] = molecular target: Cathepsin B (Homo sapiens) (UniProt P07858); assay: Inhibition of human recombinant cathepsin B

Chain of Cathepsin B (Mus musculus) (P10605 80-333 limits assumed): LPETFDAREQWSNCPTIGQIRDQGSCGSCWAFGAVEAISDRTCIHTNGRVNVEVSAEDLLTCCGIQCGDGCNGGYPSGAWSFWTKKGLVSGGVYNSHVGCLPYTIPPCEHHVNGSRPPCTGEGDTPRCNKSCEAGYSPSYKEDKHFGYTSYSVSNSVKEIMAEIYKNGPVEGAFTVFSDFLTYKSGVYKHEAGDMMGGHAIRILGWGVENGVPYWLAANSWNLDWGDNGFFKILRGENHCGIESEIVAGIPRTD
Chain of Procathepsin L (Homo sapiens) (P07711 114-333 limits assumed): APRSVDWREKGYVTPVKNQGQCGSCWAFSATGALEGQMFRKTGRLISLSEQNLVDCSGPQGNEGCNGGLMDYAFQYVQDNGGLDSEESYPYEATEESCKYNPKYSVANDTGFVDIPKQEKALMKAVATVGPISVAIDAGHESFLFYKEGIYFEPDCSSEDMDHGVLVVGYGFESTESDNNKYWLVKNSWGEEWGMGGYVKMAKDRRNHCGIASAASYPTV

Activity [1] | Activity [2] | Activity [3] | Activity [4] | Activity [5] | Activity [6] [M⁻¹ s⁻¹] | Activity [7] [M⁻¹ s⁻¹] | Compound
Active | Active | Active | Active |  |  |  | COc1ccc(-c2ccc3n2[B-](F)(F)[N+]2=C(C)C(CCC(=O)NCCCCCC(=O)N[C@@H](Cc4ccccc4)C(=O)N[C@@H](C)/C=C/C(C)=O)=C(C)C2=C3)cc1
 | Active |  |  | Active |  |  | CC(=O)/C=C/[C@H](C)NC(=O)[C@H](Cc1ccccc1)NC(=O)CCOCCOCCOCCOCCNC(=O)CCCC[C@H]1SC[C@H]2NC(=O)N[C@H]21
 |  |  |  |  | 1.63e+06 | 36700 | CC(=O)/C=C/[C@H](C)NC(=O)[C@H](Cc1ccccc1)NC(=O)OCc1ccccc1
